Experimental data reported in PMC9403976, “Elucidating the path to Plasmodium prolyl-tRNA synthetase inhibitors that overcome halofuginone resistance” (Nature Communications, 2022).
“And” between values parts separate entries of the source, which are not always exact repeats. Identical values can stand only once. Like-named read-outs stand apart in the source and are kept apart here.

How the values were obtained:
PfcProRS = target: T1, PfcProRS (Plasmodium falciparum, UniProt Q8I5R7); assay type: binding; conditions: for dose-response signal (normalized), SI Fig 8: single replicates; for Normalized response, dose-response replicates (SI Fig 14): replicates 1-3
T1 construct: made in house; host or cells: E. coli SoluBL-21
T1 sequence (Q8I5R7 249-746): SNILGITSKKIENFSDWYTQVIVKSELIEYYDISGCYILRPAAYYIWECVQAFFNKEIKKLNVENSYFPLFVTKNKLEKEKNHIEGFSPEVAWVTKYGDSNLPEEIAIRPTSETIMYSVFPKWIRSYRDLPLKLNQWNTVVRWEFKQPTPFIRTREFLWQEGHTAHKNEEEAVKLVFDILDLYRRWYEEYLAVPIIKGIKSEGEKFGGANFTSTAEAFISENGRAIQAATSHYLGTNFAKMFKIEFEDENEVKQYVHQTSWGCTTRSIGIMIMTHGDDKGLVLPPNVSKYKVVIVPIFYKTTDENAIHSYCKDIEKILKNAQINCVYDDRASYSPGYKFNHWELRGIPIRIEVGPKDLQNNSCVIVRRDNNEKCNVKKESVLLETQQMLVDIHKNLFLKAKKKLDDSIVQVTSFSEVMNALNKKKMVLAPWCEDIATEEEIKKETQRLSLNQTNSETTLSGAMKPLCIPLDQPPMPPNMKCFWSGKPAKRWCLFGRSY

HsProRS = HsProRS (Homo sapiens, UniProt P07814); experiment: TR-FRET ligand displacement assay with tracer MAT379 (CoraFluor-1-Halo and anti-His6 antibody formats); assay type: binding; design: made in house; host or cells: E. coli SoluBL-21; conditions: for TR-FRET dose-response, normalized signal (SI Fig 11): individual replicates; for HsProRS % signal at 10 μM: no added proline/ATP (-)
HsProRS, sequence (P07814 996-1512): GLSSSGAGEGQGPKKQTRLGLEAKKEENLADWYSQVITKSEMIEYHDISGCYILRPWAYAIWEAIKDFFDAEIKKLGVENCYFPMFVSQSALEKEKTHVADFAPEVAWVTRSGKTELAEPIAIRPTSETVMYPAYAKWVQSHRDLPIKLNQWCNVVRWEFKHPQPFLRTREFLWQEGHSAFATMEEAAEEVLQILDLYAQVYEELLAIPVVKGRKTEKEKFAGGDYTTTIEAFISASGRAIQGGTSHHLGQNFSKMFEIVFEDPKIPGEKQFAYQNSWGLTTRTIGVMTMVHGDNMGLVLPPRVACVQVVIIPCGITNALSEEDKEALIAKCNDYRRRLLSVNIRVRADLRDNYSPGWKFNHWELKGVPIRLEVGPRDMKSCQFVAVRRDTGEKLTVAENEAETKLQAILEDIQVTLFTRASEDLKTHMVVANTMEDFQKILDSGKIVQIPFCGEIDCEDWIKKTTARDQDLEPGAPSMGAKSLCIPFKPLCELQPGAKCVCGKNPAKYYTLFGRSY

P. falciparum Dd2-2D4 = experiment: P. falciparum asexual blood stage (ABS) growth assay, SYBR Green, 72 h, wild-type parasites; assay type: cell-based, Plasmodium falciparum; conditions: Plasmodium falciparum, DD2; SI Fig 16b; values on -log scale; read-out: ABS - Dd2-2D4 (converted)

`CC(C)(C)OC(=O)NC1(C(=O)Nc2nccnc2C(=O)NC2Cc3ccccc3C2)CCCCC1` [compound 16] was tested, and the “dose-response signal (normalized), SI Fig 8” value (PfcProRS; Log[inhibitor] (M) -5.000) was 6.20E-01 and 5.27E-01 and 6.63E-01, the “dose-response signal (normalized), SI Fig 8” value (PfcProRS; Log[inhibitor] (M) -5.301) was 7.82E-01 and 8.01E-01 and 7.78E-01 and the “dose-response signal (normalized), SI Fig 8” value (PfcProRS; Log[inhibitor] (M) -5.601) was 9.11E-01 and 9.60E-01 and 1.00E+00. The “dose-response signal (normalized), SI Fig 8” value (PfcProRS; Log[inhibitor] (M) -5.904) was 1.10E+00 and 9.14E-01 and 1.01E+00, the “dose-response signal (normalized), SI Fig 8” value (PfcProRS; Log[inhibitor] (M) -6.208) was 9.01E-01 and 9.36E-01 and 9.23E-01 and the “dose-response signal (normalized), SI Fig 8” value (PfcProRS; Log[inhibitor] (M) -6.509) was 1.06E+00 and 9.75E-01 and 1.11E+00. For the same compound, the “dose-response signal (normalized), SI Fig 8” value (PfcProRS; Log[inhibitor] (M) -6.796) was 9.95E-01 (2×) and 1.12E+00, the “dose-response signal (normalized), SI Fig 8” value (PfcProRS; Log[inhibitor] (M) -7.108) was 9.41E-01 and 8.82E-01 and 1.04E+00 and the “dose-response signal (normalized), SI Fig 8” value (PfcProRS; Log[inhibitor] (M) -7.409) was 1.04E+00 and 1.02E+00 and 9.01E-01. For the same compound, the “dose-response signal (normalized), SI Fig 8” value (PfcProRS; Log[inhibitor] (M) -7.710) was 9.65E-01 and 9.90E-01 and 1.00E+00, the “dose-response signal (normalized), SI Fig 8” value (PfcProRS; Log[inhibitor] (M) -8.000) was 9.92E-01 and 8.87E-01 and 9.29E-01 and the “dose-response signal (normalized), SI Fig 8” value (PfcProRS; Log[inhibitor] (M) -8.301) was 9.41E-01 and 9.84E-01 and 9.99E-01. The “dose-response signal (normalized), SI Fig 8” value (PfcProRS; Log[inhibitor] (M) -8.602) was 9.39E-01 and 9.44E-01 and 1.00E+00, the “dose-response signal (normalized), SI Fig 8” value (PfcProRS; Log[inhibitor] (M) -9.000) was 9.16E-01 and 9.94E-01 and 9.86E-01 and the “dose-response signal (normalized), SI Fig 8” value (PfcProRS; Log[inhibitor] (M) -9.301) was 9.11E-01 and 9.01E-01 and 9.58E-01. For the same compound, the IC50 (HsProRS) was over 10 µM, the “HsProRS % signal at 10 μM, + 100 μM proline” value (HsProRS; + 100 μM proline, 10 μM) was 70.7% and the “normalized TR-FRET ligand displacement signal, dose-response replicates (SI Fig 6)” value (HsProRS; Log[inhibitor] (M) -5.000) was 4.34E-01 and 4.81E-01 and 6.11E-01. The “TR-FRET dose-response, normalized signal (SI Fig 11)” value (HsProRS; Log[inhibitor] (M) -5.000) was 8.52E-01 and 8.40E-01 and 8.43E-01, the “normalized TR-FRET ligand displacement signal, dose-response replicates (SI Fig 6)” value (HsProRS; Log[inhibitor] (M) -5.301) was 6.93E-01 and 7.38E-01 and 8.04E-01 and the “TR-FRET dose-response, normalized signal (SI Fig 11)” value (HsProRS; Log[inhibitor] (M) -5.301) was 9.27E-01 and 9.08E-01 and 9.74E-01. For the same compound, the “normalized TR-FRET ligand displacement signal, dose-response replicates (SI Fig 6)” value (HsProRS; Log[inhibitor] (M) -5.601) was 9.79E-01 and 9.61E-01 and 8.02E-01, the “TR-FRET dose-response, normalized signal (SI Fig 11)” value (HsProRS; Log[inhibitor] (M) -5.601) was 9.47E-01 and 9.15E-01 and 9.10E-01 and the “normalized TR-FRET ligand displacement signal, dose-response replicates (SI Fig 6)” value (HsProRS; Log[inhibitor] (M) -5.904) was 1.00E+00 and 9.00E-01 and 9.53E-01. For the same compound, the “TR-FRET dose-response, normalized signal (SI Fig 11)” value (HsProRS; Log[inhibitor] (M) -5.904) was 9.81E-01 and 1.01E+00 and 9.64E-01, the “normalized TR-FRET ligand displacement signal, dose-response replicates (SI Fig 6)” value (HsProRS; Log[inhibitor] (M) -6.208) was 1.01E+00 and 9.68E-01 and 8.67E-01 and the “TR-FRET dose-response, normalized signal (SI Fig 11)” value (HsProRS; Log[inhibitor] (M) -6.208) was 9.74E-01 and 9.73E-01 and 9.58E-01. The “normalized TR-FRET ligand displacement signal, dose-response replicates (SI Fig 6)” value (HsProRS; Log[inhibitor] (M) -6.509) was 8.93E-01 and 9.31E-01 and 9.89E-01, the “TR-FRET dose-response, normalized signal (SI Fig 11)” value (HsProRS; Log[inhibitor] (M) -6.509) was 9.98E-01 and 9.53E-01 and 9.97E-01 and the “normalized TR-FRET ligand displacement signal, dose-response replicates (SI Fig 6)” value (HsProRS; Log[inhibitor] (M) -6.796) was 9.58E-01 and 1.05E+00 and 1.01E+00. The “TR-FRET dose-response, normalized signal (SI Fig 11)” value (HsProRS; Log[inhibitor] (M) -6.796) was 9.61E-01 and 9.66E-01 and 9.67E-01, the “normalized TR-FRET ligand displacement signal, dose-response replicates (SI Fig 6)” value (HsProRS; Log[inhibitor] (M) -7.108) was 9.61E-01 and 9.43E-01 and 9.87E-01 and the “TR-FRET dose-response, normalized signal (SI Fig 11)” value (HsProRS; Log[inhibitor] (M) -7.108) was 9.51E-01 and 9.57E-01 and 9.59E-01. For the same compound, the “normalized TR-FRET ligand displacement signal, dose-response replicates (SI Fig 6)” value (HsProRS; Log[inhibitor] (M) -7.409) was 1.08E+00 and 1.02E+00 (2×), the “TR-FRET dose-response, normalized signal (SI Fig 11)” value (HsProRS; Log[inhibitor] (M) -7.409) was 9.88E-01 and 8.98E-01 and 1.00E+00 and the “normalized TR-FRET ligand displacement signal, dose-response replicates (SI Fig 6)” value (HsProRS; Log[inhibitor] (M) -7.710) was 9.30E-01 and 9.73E-01 and 8.91E-01. For the same compound, the “TR-FRET dose-response, normalized signal (SI Fig 11)” value (HsProRS; Log[inhibitor] (M) -7.710) was 9.77E-01 and 9.48E-01 and 9.54E-01, the “normalized TR-FRET ligand displacement signal, dose-response replicates (SI Fig 6)” value (HsProRS; Log[inhibitor] (M) -8.000) was 9.09E-01 and 9.96E-01 and 8.17E-01 and the “TR-FRET dose-response, normalized signal (SI Fig 11)” value (HsProRS; Log[inhibitor] (M) -8.000) was 9.83E-01 and 9.29E-01 and 9.65E-01. The “normalized TR-FRET ligand displacement signal, dose-response replicates (SI Fig 6)” value (HsProRS; Log[inhibitor] (M) -8.301) was 9.56E-01 and 8.69E-01 and 9.45E-01, the “TR-FRET dose-response, normalized signal (SI Fig 11)” value (HsProRS; Log[inhibitor] (M) -8.301) was 1.00E+00 and 1.01E+00 and 9.30E-01 and the “normalized TR-FRET ligand displacement signal, dose-response replicates (SI Fig 6)” value (HsProRS; Log[inhibitor] (M) -8.602) was 9.44E-01 and 9.32E-01 and 1.00E+00. For the same compound, the “TR-FRET dose-response, normalized signal (SI Fig 11)” value (HsProRS; Log[inhibitor] (M) -8.602) was 9.93E-01 and 9.41E-01 and 1.01E+00, the “normalized TR-FRET ligand displacement signal, dose-response replicates (SI Fig 6)” value (HsProRS; Log[inhibitor] (M) -9.000) was 8.94E-01 and 8.85E-01 and 9.67E-01 and the “TR-FRET dose-response, normalized signal (SI Fig 11)” value (HsProRS; Log[inhibitor] (M) -9.000) was 9.74E-01 and 9.63E-01 and 9.89E-01. For the same compound, the “normalized TR-FRET ligand displacement signal, dose-response replicates (SI Fig 6)” value (HsProRS; Log[inhibitor] (M) -9.301) was 1.12E+00 and 1.00E+00 and 9.62E-01, the “TR-FRET dose-response, normalized signal (SI Fig 11)” value (HsProRS; Log[inhibitor] (M) -9.301) was 9.82E-01 and 9.33E-01 and 9.53E-01 and the “HsProRS % signal at 10 μM” value (HsProRS; 10 μM) was 84.5%. It also gave an IC50 (HsProRS; read-out: HsProRS IC50 + 100 μM proline, + 100 μM proline) of over 10 µM and an EC50 (P. falciparum Dd2-2D4) of 6.11 µM.

`O=c1[nH]c2nccnc2c(=O)n1C1Cc2ccccc2C1` [compound 47] was tested, and the “Normalized response, dose-response replicates (SI Fig 14)” value (“Normalized response” for short) (PfcProRS; Log[inhibitor] (M) -5.000) was 3.53E-01 and 3.73E-01 and 3.10E-01, the “Normalized response” value (PfcProRS; Log[inhibitor] (M) -5.301) was 5.89E-01 and 4.94E-01 and 3.58E-01 and the “Normalized response” value (PfcProRS; Log[inhibitor] (M) -5.601) was 7.17E-01 and 7.23E-01 and 6.31E-01. The “Normalized response” value (PfcProRS; Log[inhibitor] (M) -5.904) was 1.01E+00 and 8.61E-01 and 7.86E-01, the “Normalized response” value (PfcProRS; Log[inhibitor] (M) -6.208) was 1.02E+00 and 1.03E+00 and 9.13E-01 and the “Normalized response” value (PfcProRS; Log[inhibitor] (M) -6.509) was 9.57E-01 and 9.63E-01 and 9.85E-01. For the same compound, the “Normalized response” value (PfcProRS; Log[inhibitor] (M) -6.796) was 1.08E+00 and 9.96E-01 and 1.07E+00, the “Normalized response” value (PfcProRS; Log[inhibitor] (M) -7.108) was 9.59E-01 and 1.12E+00 and 1.15E+00 and the “Normalized response” value (PfcProRS; Log[inhibitor] (M) -7.409) was 1.11E+00 and 1.34E+00 and 1.10E+00. For the same compound, the “Normalized response” value (PfcProRS; Log[inhibitor] (M) -7.710) was 1.07E+00 (2×) and 1.12E+00, the “Normalized response” value (PfcProRS; Log[inhibitor] (M) -8.000) was 1.02E+00 and 1.00E+00 and 1.01E+00 and the “Normalized response” value (PfcProRS; Log[inhibitor] (M) -8.301) was 1.13E+00 and 1.06E+00 and 1.10E+00. For the same compound, the “Normalized response” value (PfcProRS; Log[inhibitor] (M) -8.602) was 1.07E+00 and 9.89E-01 and 9.49E-01, the “Normalized response” value (PfcProRS; Log[inhibitor] (M) -9.000) was 9.68E-01 and 9.48E-01 and 1.08E+00 and the “Normalized response” value (PfcProRS; Log[inhibitor] (M) -9.301) was 9.08E-01 and 1.04E+00 and 1.01E+00. For the same compound, the IC50 (HsProRS) was over 10 µM, the Kd (HsProRS; HsProRS (KD [nM]) + 100 μM proline mean, + 100 μM proline) was 2650 nM and the “HsProRS % signal at 10 μM” value (HsProRS; 10 μM) was 79.5%. The EC50 (P. falciparum Dd2-2D4) was 11.1 µM.
